# Experimental data published in patent US12655116B2, “Substituted isophthalic acid diamides” (Bayer Aktiengesellschaft, priority 2020, dated 2026).
# Legend:
# [1] = tested on: ALOMY; test: Pre-emergence herbicidal action against ALOMY; type: in vivo, Alopecurus myosuroides; settings: 80 g/ha, pre-emergence, scored visually after 3 weeks vs untreated controls (100% = plants have died, 0% = like control plants)
# In short: (§1)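 Greenhouse pots of sandy loam held seeds covered with soil, onto which the compound was applied before emergence. An aqueous suspension or emulsion of WP or EC was used at 600 to 800 l/ha with 0.2% wetting agent. Percent damage was judged visually at 3 weeks.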
# [2] = tested on: ECHCG; test: Post-emergence herbicidal action against ECHCG; type: in vivo, Echinochloa crus-galli
# In short: (§2)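 A WP or EC formulation diluted in water with 0.2% wetting agent was sprayed at 600 to 800 l/ha onto one-leaf-stage plants grown in sandy loam. About 3 weeks later, action was rated visually in percent, 100% being dead plants.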
# [3] = tested on: MATIN; test: Pre-emergence herbicidal action against MATIN; type: in vivo, Matricaria inodora
# In short: as §1
# [4] = tested on: SETVI; test: Pre-emergence herbicidal action against SETVI; type: in vivo, Setaria viridis; settings: dosage 80 g/ha
# In short: as §1
# [5] = tested on: POLCO; test: Pre-emergence herbicidal action against POLCO; type: in vivo, Polygonum convolvulus
# In short: as §1
# [6] = tested on: MATIN; test: Post-emergence herbicidal action against MATIN; type: in vivo, Matricaria inodora
# In short: as §2
# [7] = tested on: ECHCG; test: Pre-emergence herbicidal action against ECHCG; type: in vivo, Echinochloa crus-galli
# In short: as §1
# [8] = tested on: AMARE; test: Post-emergence herbicidal action against AMARE; type: in vivo, Amaranthus retroflexus; settings: Amaranthus retroflexus, 504 h, 20 g/ha, visual assessment about 3 weeks after treatment, 100% = plants have died, 0% = like control plants
# In short: as §2
# [9] = tested on: SETVI; test: Post-emergence herbicidal action against SETVI; type: in vivo, Setaria viridis; settings: dosage 20 g/ha
# In short: as §2
# [10] = tested on: DIGSA; test: Pre-emergence herbicidal action against DIGSA; type: in vivo, Digitaria sanguinalis
# In short: as §1
# [11] = tested on: ABUTH; test: Post-emergence herbicidal action against ABUTH; type: in vivo, Abutilon theophrasti; settings: visual assessment about 3 weeks after treatment vs untreated controls
# In short: as §2
# [12] = tested on: PHBPU; test: Post-emergence herbicidal action against PHBPU; type: in vivo, Pharbitis purpurea; settings: dosage 20 g/ha
# In short: as §2
# [13] = tested on: DIGSA; test: Post-emergence herbicidal action against DIGSA; type: in vivo, Digitaria sanguinalis; settings: Digitaria sanguinalis, 504 h
# In short: as §2
# [14] = tested on: ABUTH; test: Pre-emergence herbicidal action against ABUTH; type: in vivo, Abutilon theophrasti
# In short: as §1
# [15] = tested on: VERPE; test: Pre-emergence herbicidal action against VERPE; type: in vivo, Veronica persica
# In short: as §1
# [16] = tested on: VERPE; test: Post-emergence herbicidal action against VERPE; type: in vivo, Veronica persica
# In short: as §2
# [17] = tested on: VIOTR; test: Pre-emergence herbicidal action against VIOTR; type: in vivo, Viola tricolor
# In short: as §1
# [18] = tested on: PHBPU; test: Pre-emergence herbicidal action against PHBPU; type: in vivo, Pharbitis purpurea; settings: dosage 80 g/ha
# In short: as §1
# [19] = tested on: VIOTR; test: Post-emergence herbicidal action against VIOTR; type: in vivo, Viola tricolor
# In short: as §2
# [20] = tested on: AMARE; test: Pre-emergence herbicidal action against AMARE; type: in vivo, Amaranthus retroflexus
# In short: as §1
# [21] = tested on: AVEFA; test: Pre-emergence herbicidal action against AVEFA; type: in vivo, Avena fatua; settings: 80 g/ha, pre-emergence
# In short: as §1
# [22] = Tripleurospermum inodorum, 504 h, dosage 20 g/ha
# [23] = 80 g/ha, scored visually after 3 weeks vs untreated controls (100% = plants have died, 0% = like control plants)
smiles,measurement,setting,value
CCNC(=O)c1c(C(F)F)ccc(C(=O)Nc2nnnn2C)c1CC [Example 1-278],pest or weed control at 80 g/ha,"[1]; Alopecurus myosuroides, 504 h",90%
same,pest or weed control at 5 g/ha,"[2]; Echinochloa crus-galli, 504 h, dosage 5 g/ha",90%
same,pest or weed control at 20 g/ha,"[2]; Echinochloa crus-galli, 504 h, dosage 20 g/ha",90%
same,pest or weed control at 20 g/ha,[3]; [22],100%
same,pest or weed control at 80 g/ha,"[3]; Tripleurospermum inodorum, 504 h, dosage 80 g/ha",100%
same,pest or weed control at 80 g/ha,"[4]; Setaria viridis, 504 h",100%
same,pest or weed control at 20 g/ha,"[5]; Fallopia convolvulus, 504 h, dosage 20 g/ha",90%
same,pest or weed control at 80 g/ha,"[5]; Fallopia convolvulus, 504 h, dosage 80 g/ha",100%
same,pest or weed control at 5 g/ha,"[6]; Tripleurospermum inodorum, 504 h, dosage 5 g/ha",80%
same,pest or weed control at 20 g/ha,[6]; [22],90%
same,pest or weed control at 20 g/ha,"[7]; Echinochloa crus-galli, 504 h, 20 g/ha",90%
same,pest or weed control at 80 g/ha,"[7]; Echinochloa crus-galli, 504 h, 80 g/ha",100%
same,pest or weed control at 20 g/ha,[8],90%
same,pest or weed control at 20 g/ha,"[9]; Setaria viridis, 504 h",90%
same,pest or weed control at 20 g/ha,"[10]; Digitaria sanguinalis, 504 h, dosage 20 g/ha",100%
same,pest or weed control at 80 g/ha,"[10]; Digitaria sanguinalis, 504 h, dosage 80 g/ha",100%
same,pest or weed control at 5 g/ha,"[11]; Abutilon theophrasti, 504 h, dosage 5 g/ha",80%
same,pest or weed control at 20 g/ha,"[11]; Abutilon theophrasti, 504 h, dosage 20 g/ha",90%
same,pest or weed control at 20 g/ha,"[12]; Ipomoea purpurea, 504 h",90%
same,pest or weed control at 5 g/ha,[13]; 5 g/ha,90%
same,pest or weed control at 20 g/ha,[13]; 20 g/ha,90%
same,pest or weed control at 80 g/ha,"[14]; Abutilon theophrasti, 504 h, 80 g/ha, scored visually after 3 weeks vs untreated controls (100% = plants have died, 0% = like control plants)",100%
same,pest or weed control at 20 g/ha,"[14]; Abutilon theophrasti, 504 h, dosage 20 g/ha, scored visually after 3 weeks vs untreated controls, 100% = plants have died, 0% = like control plants, read-out: Pre-emergence action against ABUTH (herbicidal activity in percent)",90%
same,pest or weed control at 80 g/ha,"[15]; Veronica persica, 504 h, dosage 80 g/ha",100%
same,pest or weed control at 5 g/ha,"[16]; Veronica persica, 504 h, 5 g/ha",80%
same,pest or weed control at 20 g/ha,"[16]; Veronica persica, 504 h, 20 g/ha",90%
same,pest or weed control at 20 g/ha,"[17]; Viola tricolor, 504 h, dosage 20 g/ha",100%
same,pest or weed control at 80 g/ha,"[17]; Viola tricolor, 504 h, dosage 80 g/ha",100%
same,pest or weed control at 80 g/ha,"[18]; Ipomoea purpurea, 504 h",90%
same,pest or weed control at 5 g/ha,"[19]; Viola tricolor, 504 h, 5 g/ha",90%
same,pest or weed control at 20 g/ha,"[19]; Viola tricolor, 504 h, 20 g/ha",90%
same,pest or weed control at 20 g/ha,"[20]; Amaranthus retroflexus, 504 h, 20 g/ha, scored visually after 3 weeks vs untreated controls, 100% = plants have died, 0% = like control plants",100%
same,pest or weed control at 80 g/ha,"[20]; Amaranthus retroflexus, 504 h, 80 g/ha, scored visually after 3 weeks vs untreated controls, 100% = plants have died, 0% = like control plants",100%
same,pest or weed control at 80 g/ha,"[21]; Avena fatua, 504 h",90%
CCNC(=O)c1c(C(F)F)ccc(C(=O)Nc2nnnn2CC)c1OC [Example 2-73],Pre-emergence action against ALOMY (herbicidal activity),[1],100%
same,Post-emergence action against ECHCG in %,[2]; dosage 5 g/ha,80%
same,Post-emergence action against ECHCG in %,[2]; dosage 20 g/ha,80%
same,Pre-emergence action against MATIN in %,[3]; dosage 20 g/ha,100%
same,Pre-emergence action against MATIN in %,[3]; dosage 80 g/ha,100%
same,Pre-emergence action against SETVI in %,[4],100%
same,Pre-emergence action against POLCO in %,[5]; dosage 80 g/ha,80%
same,Post-emergence action against MATIN in %,[6]; dosage 5 g/ha,80%
same,Post-emergence action against MATIN in %,[6]; dosage 20 g/ha,80%
same,Pre-emergence action against ECHCG in %,[7]; 80 g/ha,100%
same,Post-emergence action against SETVI in %,[9],100%
same,Pre-emergence action against DIGSA in %,[10]; dosage 20 g/ha,90%
same,Pre-emergence action against DIGSA in %,[10]; dosage 80 g/ha,100%
same,Post-emergence action against ABUTH in %,[11]; dosage 5 g/ha,80%
same,Post-emergence action against ABUTH in %,[11]; dosage 20 g/ha,80%
same,Post-emergence action against PHBPU in %,[12],80%
same,Pre-emergence action against ABUTH (herbicidal activity),[14]; [23],100%
same,Pre-emergence action against ABUTH (herbicidal activity in percent),"[14]; dosage 20 g/ha, scored visually after 3 weeks vs untreated controls, 100% = plants have died, 0% = like control plants",100%
same,Pre-emergence action against VERPE in %,[15]; dosage 20 g/ha,90%
same,Pre-emergence action against VERPE in %,[15]; dosage 80 g/ha,90%
same,Post-emergence action against VERPE in %,[16]; 5 g/ha,80%
same,Post-emergence action against VERPE in %,[16]; 20 g/ha,90%
same,Pre-emergence action against VIOTR in %,[17]; dosage 20 g/ha,90%
same,Pre-emergence action against VIOTR in %,[17]; dosage 80 g/ha,100%
same,Pre-emergence action against PHBPU in %,[18],80%
same,Post-emergence action against VIOTR in %,[19]; 20 g/ha,100%
same,Pre-emergence action against AMARE in %,"[20]; 20 g/ha, scored visually after 3 weeks vs untreated controls, 100% = plants have died, 0% = like control plants",100%
same,Pre-emergence action against AMARE in %,[20]; [23],100%
same,Pre-emergence action against AVEFA in %,[21],80%
